# From paper PMC2008936 (British Journal of Cancer, 1973)
# How the values were obtained:
# [1] = microsomes
# [2] = system: S. typhimurium TA 1530; type: cell-based, Salmonella typhimurium
# [3] = system: E. coli AB 2480 (uvrA recA)
# [4] = in vitro; conditions: male, Wistar, Escherichia coli (indicator bacteria); rat (liver fraction)
# [5] = system: Drosophila; conditions: in vivo; cited from earlier work
# [6] = system: S. typhimurium his C207; type: cell-based, Salmonella typhimurium
# [7] = system: S. typhimurium his G46; type: cell-based, Salmonella typhimurium
# [8] = system: Neurospora; conditions: cited from earlier work
# [9] = system: rat liver; conditions: in vivo; cited from earlier work
# [10] = system: bacterial transforming DNA; conditions: cited from earlier work
compound,measurement,setting,value
"OCC(S)CS (centres unmarked) [2,3-Dimercaptopropanol]",Effect on amount of aflatoxin B1 metabolized,[1],no alteration in the amount of aflatoxin B1 metabolized
same,Effect of added agent on bacterial killing by the aflatoxin B1 metabolite,[2],some protective action
same,Inhibition of killing (fold),[2],three-fold
same,Survivors in the presence of dimercaptopropanol,[2],42%
"Cc1ccc2cc3c(ccc4ccccc43)c3c2c1CC3 [3-methylcholanthrene, reference compound]",Effect of pretreatment of rats on amount of lethal aflatoxin B1 metabolite formed by liver,[3],did not alter the amount
COc1c2c(c3oc4cccc(O)c4c(=O)c3c1OC)C1C=COC1O2 (centres unmarked) [5-methoxysterigmatocystin],Formation of toxic metabolites on incubation with mixed function oxidases,[3],Toxic metabolites were also formed
COc1cccc2oc3c4c(cc(OC)c3c(=O)c12)OC1OC=CC41 (centres unmarked) [O-methylsterigmatocystin],Formation of toxic metabolites on incubation with mixed function oxidases,[3],Toxic metabolites were also formed
"COc1cc2c(c3oc(=O)cc(CCO)c13)C1C=COC1O2 (centres unmarked) [Parasiticol, parasiticol]",Formation of toxic metabolites on incubation with mixed function oxidases,[3],Toxic metabolites were also formed
"CCC1(c2ccccc2)C(=O)NC(=O)NC1=O [Phenobarbitone, phenobarbitone, reference compound]",Effect of pretreatment of rats on amount of lethal aflatoxin B1 metabolite formed by liver,[3],an increase was observed
"O=C1c2cc(O)cc(O)c2C(=O)c2c1cc1c(c2O)[C@@H]2C=CO[C@@H]2O1 [Versicolorin A, versicolorin A]",Formation of toxic metabolites on incubation with mixed function oxidases,[3],Toxic metabolites were also formed
"c1ccc2c(c1)cc1ccc3cccc4ccc2c1c34 [benzo(a)pyrene, reference compound]",Effect of pretreatment of rats on amount of lethal aflatoxin B1 metabolite formed by liver,[3],did not alter the amount
C1CCC2OC2C1 (centres unmarked) [cyclohexene oxide],Effect of added agent on bacterial killing by the aflatoxin B1 metabolite,[2],did not alter bacterial killing
N[C@@H](CS)C(=O)O [cysteine],Effect of added agent on bacterial killing by the aflatoxin B1 metabolite,[2],did not alter bacterial killing
N[C@@H](CCC(=O)N[C@@H](CS)C(=O)NCC(=O)O)C(=O)O [glutathione],Effect of added agent on bacterial killing by the aflatoxin B1 metabolite,[2],did not alter bacterial killing
CSCC[C@H](N)C(=O)O [methionine],Effect of added agent on bacterial killing by the aflatoxin B1 metabolite,[2],did not alter bacterial killing
O=S([O-])([O-])=S.[Na+].[Na+] [sodium thiosulphate],Effect of added agent on bacterial killing by the aflatoxin B1 metabolite,[2],did not alter bacterial killing
COc1cc2c(c3oc4cccc(O)c4c(=O)c13)[C@@H]1C=CO[C@@H]1O2 [sterigmatocystin],viability,[4],0.5%
same,Survival [no. viable bacteria (treated)/no. viable bacteria (control) x 100],[3],0- 3
aflatoxin B1,Mutagenicity,[5],mutagenic
same,Mutation of the strain by the aflatoxin B1 metabolite,[6],not mutated by it
same,Sensitivity of the strain to the toxic effects of the metabolite,[6],resistant to the toxic effects
same,Effect of incubation at 30 C on number of bacteria killed,[2],a decrease in the number of bacteria killed
same,Mutation of the strain by the aflatoxin B1 metabolite,[7],not mutated by it
same,Sensitivity of the strain to the toxic effects of the metabolite,[7],resistant to the toxic effects
same,Killing activity with heat denatured liver preparation,[3],abolished all killing activity
same,Mutagenicity,[8],mutagenic
same,Liver carcinogenicity,[9],most potent liver carcinogen known for the rat
same,Mutagenicity,[10],mutagenic
sodium sulphide,Effect of added agent on bacterial killing by the aflatoxin B1 metabolite,[2],did not alter bacterial killing
